Laboratory results taken from PubChem BioAssay (NCI).
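Growth conditions: 96-well plates. Treatment: test compound, 48 hours, 5 concentrations. Analysis: linear interpolation between bracketing concentrations; unreached endpoints set to highest concentration. Here, GI50 denotes the concentration required for 50% inhibition of growth. TGI: concentration producing complete growth inhibition.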

Experiments:
Assay in all cases: NCI tumour cell line growth inhibition, 48 h
A498 renal = tested on: A498 renal
U251 CNS = tested on: U251 CNS
786-0 renal = tested on: 786-0 renal
MCF7 breast = tested on: MCF7 breast
RXF 393 renal = tested on: RXF 393 renal
M14 melanoma = tested on: M14 melanoma
T-47D breast = tested on: T-47D breast
CCRF-CEM leukemia = tested on: CCRF-CEM leukemia
NCI/ADR-RES ovarian = tested on: NCI/ADR-RES ovarian
OVCAR-8 ovarian = tested on: OVCAR-8 ovarian

| Compound | GI50 (A498 renal) [nM] | TGI (A498 renal) [µM] | GI50 (U251 CNS) [nM] | TGI (U251 CNS) [µM] | GI50 (786-0 renal) [nM] | TGI (786-0 renal) [µM] | GI50 (MCF7 breast) [nM] | TGI (MCF7 breast) [µM] | GI50 (RXF 393 renal) [nM] | TGI (RXF 393 renal) [µM] | GI50 (M14 melanoma) [nM] | TGI (M14 melanoma) [µM] | GI50 (T-47D breast) [nM] | TGI (T-47D breast) [µM] | GI50 (CCRF-CEM leukemia) [nM] | TGI (CCRF-CEM leukemia) [µM] | GI50 (NCI/ADR-RES ovarian) [nM] | TGI (NCI/ADR-RES ovarian) [µM] | GI50 (OVCAR-8 ovarian) [nM] | TGI (OVCAR-8 ovarian) [µM] |
| --- | --- | --- | --- | --- | --- | --- | --- | --- | --- | --- | --- | --- | --- | --- | --- | --- | --- | --- | --- | --- |
| Cc1ccc(Oc2nc3ccccc3cc2-c2nnc(Cn3c(COc4ccccc4)nc4ccccc43)o2)cc1 | 409 | 18.7 | 1580 | 3.62 | 3090 | 11.8 | 949 | 5.38 | 2710 | 10.6 | 2330 | 7.4 | 2610 | 14.6 | 414 | 3.74 | 2840 | 10.9 | 2120 | 7.52 |
| COc1ccc(-n2c(C)nc3c(c(C)nn3-c3ccccc3)c2=O)cc1 | 26.4 | 0.0843 | 61.4 | > 100 | 65.4 | > 100 | 36 | > 100 | 60.9 | > 100 | 49.1 | > 100 | 40.3 | 72.5 | 57 | > 100 | 53.4 | > 100 | 177 | > 100 |
| CC1(C)Cc2c(Br)c(Br)c(Br)c(OCC(O)CN3CCOCC3)c2O1 (stereo not given) | 12600 | 26.4 | 13700 | 27.9 | 13000 | 28.6 | 13400 | 29 | 3690 | 13 | 17900 | 37.1 | 13100 | 27.3 | 10200 | 24.1 | 16100 | 34.7 | 11300 | 35.4 |
| COc1ccc(-c2ccccc2)cc1-c1c(Nc2cc(Cl)cc(Cl)c2O)c(=O)c1=O | 726 | 2.2 | 1630 | > 50 | 1840 | > 50 | 1300 | > 50 | 1480 | > 50 | 1720 | > 50 | 1700 | > 50 | 1640 | > 50 | 1380 | > 50 | 1840 | > 50 |
| COc1ccc2c(c1)C(=O)c1c-2n(CCCN2CCOCC2)c(=O)c2cc([N+](=O)[O-])ccc12 | < 10 | 0.117 | < 10 | 0.0598 | < 10 | – | < 10 | > 100 | < 10 | – | < 10 | < 0.01 | < 10 | > 100 | < 10 | – | < 10 | < 0.0279 | < 10 | > 50.6 |
| COc1cc2c(cc1OC)-c1c(c3ccc([N+](=O)[O-])cc3c(=O)n1CCCN)C2=O | 6270 | 13.2 | 267 | 1.05 | 716 | 1.84 | 54.5 | 7.09 | 1210 | 4.12 | 9.71 | 1.57 | 271 | 8.47 | 495 | 2.4 | 342 | 2.87 | 1010 | 4.49 |
| Cc1ccc(C[P+](c2ccccc2)(c2ccccc2)c2ccccc2)cc1 | 1840 | 7.4 | 628 | > 39.3 | 1710 | 8.02 | 701 | > 33 | 3240 | 20.3 | 1320 | 11.1 | 314 | – | 1310 | – | 37700 | > 100 | 781 | 4.65 |
| COc1cc(/C=C2\C(=O)Nc3ccccc32)cc(OC)c1OC | 27400 | > 100 | 10900 | 63.5 | 23200 | > 100 | 19900 | > 100 | 2370 | 10.6 | 21200 | 79.5 | > 100000 | > 100 | 8820 | > 100 | 11600 | 45.6 | 25000 | > 100 |
| Cc1cc(N=C2C=C(Nc3cc(C)on3)C(=O)c3ccccc32)no1 | – | > 100 | – | > 95.1 | – | 98.8 | – | 63 | – | > 65.9 | – | > 100 | – | > 100 | – | > 100 | – | > 100 | – | > 100 |
| CN1CCC(n2[nH]c(-c3ccccc3)c(Cc3ccccc3)c2=O)CC1 | – | > 100 | – | > 100 | – | > 100 | – | > 100 | – | > 100 | – | > 100 | – | > 100 | – | > 100 | – | > 100 | – | > 100 |
